Among the data in US8541588B2, “Sulfonamide derivatives” (Pfizer Limited, priority 2009, dated 2013) are IC50 values, retold here.

Where only a bound is given, the exact number is not on record here.

T1 sequence (Q15858 whole entry): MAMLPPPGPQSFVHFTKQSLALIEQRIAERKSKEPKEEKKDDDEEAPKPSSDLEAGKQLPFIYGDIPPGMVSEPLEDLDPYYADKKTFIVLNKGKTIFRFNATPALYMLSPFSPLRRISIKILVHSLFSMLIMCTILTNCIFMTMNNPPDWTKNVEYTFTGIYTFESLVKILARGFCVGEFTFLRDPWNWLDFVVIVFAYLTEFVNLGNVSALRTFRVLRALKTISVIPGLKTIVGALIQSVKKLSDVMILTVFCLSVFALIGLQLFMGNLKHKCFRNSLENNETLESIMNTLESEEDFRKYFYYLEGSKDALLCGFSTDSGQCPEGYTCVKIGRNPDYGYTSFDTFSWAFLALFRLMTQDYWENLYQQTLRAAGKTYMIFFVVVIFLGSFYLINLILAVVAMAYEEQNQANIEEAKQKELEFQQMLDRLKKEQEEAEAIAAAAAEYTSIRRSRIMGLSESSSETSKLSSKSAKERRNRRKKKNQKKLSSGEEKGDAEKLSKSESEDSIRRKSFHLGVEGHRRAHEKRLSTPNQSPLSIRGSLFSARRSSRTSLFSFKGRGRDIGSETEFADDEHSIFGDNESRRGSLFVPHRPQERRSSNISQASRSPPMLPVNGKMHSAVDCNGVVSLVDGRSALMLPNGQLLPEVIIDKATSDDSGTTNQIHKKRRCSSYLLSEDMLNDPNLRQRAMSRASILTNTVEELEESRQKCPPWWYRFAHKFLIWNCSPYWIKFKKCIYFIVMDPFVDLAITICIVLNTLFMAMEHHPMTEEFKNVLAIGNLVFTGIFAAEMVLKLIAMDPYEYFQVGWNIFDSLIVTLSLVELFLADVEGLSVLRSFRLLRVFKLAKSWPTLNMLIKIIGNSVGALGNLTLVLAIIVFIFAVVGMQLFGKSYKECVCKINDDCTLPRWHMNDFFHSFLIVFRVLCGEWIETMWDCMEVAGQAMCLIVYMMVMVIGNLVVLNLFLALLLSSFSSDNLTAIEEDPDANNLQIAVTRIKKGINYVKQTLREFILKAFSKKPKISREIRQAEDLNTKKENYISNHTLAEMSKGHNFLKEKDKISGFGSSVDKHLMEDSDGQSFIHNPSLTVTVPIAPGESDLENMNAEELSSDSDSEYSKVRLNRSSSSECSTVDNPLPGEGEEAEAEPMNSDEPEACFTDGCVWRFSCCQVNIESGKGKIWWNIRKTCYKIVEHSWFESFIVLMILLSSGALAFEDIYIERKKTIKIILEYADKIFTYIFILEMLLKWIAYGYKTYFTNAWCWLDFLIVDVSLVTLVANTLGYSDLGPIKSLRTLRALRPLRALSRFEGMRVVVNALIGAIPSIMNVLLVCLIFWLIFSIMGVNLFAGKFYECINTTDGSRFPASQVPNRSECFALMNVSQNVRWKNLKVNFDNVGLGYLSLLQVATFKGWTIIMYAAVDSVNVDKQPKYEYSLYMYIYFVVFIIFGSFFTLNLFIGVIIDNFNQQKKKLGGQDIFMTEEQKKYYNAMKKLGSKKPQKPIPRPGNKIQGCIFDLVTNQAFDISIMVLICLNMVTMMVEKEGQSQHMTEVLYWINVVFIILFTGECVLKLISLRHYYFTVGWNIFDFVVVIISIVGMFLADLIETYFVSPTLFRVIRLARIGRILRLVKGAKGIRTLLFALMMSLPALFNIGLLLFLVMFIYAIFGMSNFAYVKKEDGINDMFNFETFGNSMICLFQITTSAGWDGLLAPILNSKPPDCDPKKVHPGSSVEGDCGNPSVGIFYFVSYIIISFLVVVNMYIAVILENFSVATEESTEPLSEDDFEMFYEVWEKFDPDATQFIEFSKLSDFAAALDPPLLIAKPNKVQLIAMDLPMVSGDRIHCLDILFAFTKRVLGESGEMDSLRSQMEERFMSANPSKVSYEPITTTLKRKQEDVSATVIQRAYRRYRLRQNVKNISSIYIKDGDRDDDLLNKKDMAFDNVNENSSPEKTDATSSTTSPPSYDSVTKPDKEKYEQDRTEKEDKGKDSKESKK

This test has as its target T1, Nav1.7 (or SCN9A) channel; HEK cells stably transfected with hSCN9A (Homo sapiens, UniProt Q15858).
T1 construct: expressed in transfected cells
Briefly: Nav1.7 block, PatchXpress 7000 automated whole-cell voltage clamp, estimated IC50 (EIC50). The conditions noted are these: estimated IC50; hSCN9A HEK cells, PatchXpress platform; Examples 283-814. The class given is cell-based.
By IC50 is commonly meant the midpoint of a concentration-inhibition curve. For the compound `CCOCn1nncc1-c1cc(Cl)ccc1Oc1ccc(S(=O)(=O)Nc2nccs2)cc1C#N` [Example 323, 4-{4-chloro-2-[1-(ethoxymethyl)-1H-1,2,3-triazol-5-yl]phenoxy}-3-cyano-N-1,3-thiazol-2-ylbenzenesulfonamide], the IC50 is greater than 300 nM.

For `CCn1nc(-c2ccc(Oc3ccc(S(=O)(=O)Nc4nccs4)cc3C#N)c(F)c2)cc1C(F)(F)F` [Example 324, 3-cyano-4-{4-[1-ethyl-5-(trifluoromethyl)-1H-pyrazol-3-yl]-2-fluorophenoxy}-N-1,3-thiazol-2-ylbenzenesulfonamide], the IC50 was greater than 1000 nM.

As for `Cn1cnc(-c2cc(Cl)ccc2Oc2ccc(S(=O)(=O)Nc3nccs3)cc2C#N)n1` [Example 325, 4-[4-chloro-2-(1-methyl-1H-1,2,4-triazol-3-yl)phenoxy]-3-cyano-N-1,3-thiazol-2-ylbenzenesulfonamide], the half-maximal inhibitory concentration (IC50) was greater than 300 nM.

For the compound `Cn1ncnc1-c1cc(Cl)ccc1Oc1ccc(S(=O)(=O)Nc2nccs2)cc1C#N` [Example 326, 4-[4-chloro-2-(1-methyl-1H-1,2,4-triazol-5-yl)phenoxy]-3-cyano-N-1,3-thiazol-2-ylbenzenesulfonamide], the concentration for half-maximal inhibition (IC50) is 2100 nM.

In the case of `CCn1nc(C(F)(F)F)cc1-c1ccc(Oc2ccc(S(=O)(=O)Nc3nccs3)cc2C#N)cc1F` [Example 327, 3-cyano-4-{4-[1-ethyl-3-(trifluoromethyl)-1H-pyrazol-5-yl]-3-fluorophenoxy}-N-1,3-thiazol-2-ylbenzenesulfonamide], the half-inhibitory concentration (IC50) is 370 nM.

With `CCn1nc(C(F)(F)F)cc1-c1ccc(Oc2ccc(S(=O)(=O)Nc3nccs3)cc2C#N)c(F)c1` [Example 328, 3-cyano-4-{4-[1-ethyl-3-(trifluoromethyl)-1H-pyrazol-5-yl]-2-fluorophenoxy}-N-1,3-thiazol-2-ylbenzenesulfonamide], the IC50 was 81 nM.

As for `Cn1nc(C(F)(F)F)cc1-c1ccc(Oc2ccc(S(=O)(=O)Nc3nccs3)cc2C#N)cc1F` [Example 329, 3-cyano-4-{3-fluoro-4-[1-methyl-3-(trifluoromethyl)-1H-pyrazol-5-yl]phenoxy}-N-1,3-thiazol-2-ylbenzenesulfonamide], the half-inhibitory concentration (IC50) is 340 nM.

Regarding `Cn1nc(C(F)(F)F)cc1-c1ccc(Oc2ccc(S(=O)(=O)Nc3nccs3)cc2C#N)c(F)c1` [Example 330, 3-cyano-4-{2-fluoro-4-[1-methyl-3-(trifluoromethyl)-1H-pyrazol-5-yl]phenoxy}-N-1,3-thiazol-2-ylbenzenesulfonamide], the half-maximal inhibitory concentration (IC50) is 250 nM.

`N#Cc1cc(S(=O)(=O)Nc2nccs2)ccc1Oc1cnn(Cc2ccc(Cl)cc2)c1` [Example 331, 4-{[1-(4-chlorobenzyl)-1H-pyrazol-4-yl]oxy}-3-cyano-N-1,3-thiazol-2-ylbenzenesulfonamide]: the half-maximal inhibitory concentration (IC50) is 2000 nM.

Take `N#Cc1cc(S(=O)(=O)Nc2nccs2)ccc1Oc1cnn(-c2ccc(Cl)cc2)c1` [Example 332, 4-{[1-(4-chlorophenyl)-1H-pyrazol-4-yl]oxy}-3-cyano-N-1,3-thiazol-2-ylbenzenesulfonamide]: the IC50 was greater than 1000 nM.

Turning to `N#Cc1cc(S(=O)(=O)Nc2nccs2)ccc1Oc1cnn(-c2ccc(Cl)cc2Cl)c1` [Example 333, 3-cyano-4-{[1-(2,4-dichlorophenyl)-1H-pyrazol-4-yl]oxy}-N-1,3-thiazol-2-ylbenzenesulfonamide], the IC50 is greater than 1000 nM.

On to `N#Cc1cc(S(=O)(=O)Nc2nccs2)ccc1Oc1cnn(-c2cccc(C(F)(F)F)c2)c1` [Example 334, 3-cyano-N-1,3-thiazol-2-yl-4-({1-[3-(trifluoromethyl)phenyl]-1H-pyrazol-4-yl}oxy)benzenesulfonamide], for which the half-maximal inhibitory concentration (IC50) was 3400 nM.

Consider `Cn1nc(C(F)(F)F)cc1-c1ccc(Oc2ccc(S(=O)(=O)Nc3nccs3)cc2C#N)c(Cl)c1` [Example 335, 4-{2-chloro-4-[1-methyl-3-(trifluoromethyl)-1H-pyrazol-5-yl]phenoxy}-3-cyano-N-1,3-thiazol-2-ylbenzenesulfonamide], for which the IC50 is 32 nM.

`N#Cc1cc(S(=O)(=O)Nc2nccs2)ccc1Oc1ccc(Cl)c(Cn2cncn2)c1` [Example 336, 4-[4-chloro-3-(1H-1,2,4-triazol-1-ylmethyl)phenoxy]-3-cyano-N-1,3-thiazol-2-ylbenzenesulfonamide]: the IC50 is 2200 nM.

In the case of `CCn1nc(C(F)(F)F)cc1-c1ccc(Oc2ccc(S(=O)(=O)Nc3ccon3)cc2C#N)cc1` [Example 337, 3-cyano-4-{4-[1-ethyl-3-(trifluoromethyl)-1H-pyrazol-5-yl]phenoxy}-N-isoxazol-3-ylbenzenesulfonamide], the IC50 is 2500 nM.

As for `CCn1nc(C(F)(F)F)cc1-c1ccc(Oc2ccc(S(=O)(=O)Nc3ncc(F)cn3)cc2C#N)cc1` [Example 338, 3-cyano-4-{4-[1-ethyl-3-(trifluoromethyl)-1H-pyrazol-5-yl]phenoxy}-N-(5-fluoropyrimidin-2-yl)benzenesulfonamide], the IC50 is 1800 nM.

As to `CCn1nc(C(F)(F)F)cc1-c1ccc(Oc2ccc(S(=O)(=O)Nc3ncccc3Cl)cc2C#N)cc1` [Example 339, N-(3-chloropyridin-2-yl)-3-cyano-4-{4-[1-ethyl-3-(trifluoromethyl)-1H-pyrazol-5-yl]phenoxy}benzenesulfonamide], the half-inhibitory concentration (IC50) was 15000 nM.

Consider `CCn1nc(C(F)(F)F)cc1-c1ccc(Oc2ccc(S(=O)(=O)Nc3ccc(C(F)(F)F)cn3)cc2C#N)cc1` [Example 340, 3-cyano-4-{4-[1-ethyl-3-(trifluoromethyl)-1H-pyrazol-5-yl]phenoxy}-N-[5-(trifluoromethyl)pyridin-2-yl]benzenesulfonamide], for which the IC50 was 34000 nM.

Consider `CCn1nc(C(F)(F)F)cc1-c1ccc(Oc2ccc(S(=O)(=O)Nc3cnsn3)cc2C#N)cc1` [Example 341, 3-cyano-4-{4-[1-ethyl-3-(trifluoromethyl)-1H-pyrazol-5-yl]phenoxy}-N-1,2,5-thiadiazol-3-ylbenzenesulfonamide], for which the half-inhibitory concentration (IC50) was 3600 nM.

As for `CCn1nc(C(F)(F)F)cc1-c1ccc(Oc2ccc(S(=O)(=O)Nc3cc(C#N)ccn3)cc2C#N)cc1` [Example 342, 3-cyano-N-(4-cyanopyridin-2-yl)-4-{4-[1-ethyl-3-(trifluoromethyl)-1H-pyrazol-5-yl]phenoxy}benzenesulfonamide], the IC50 is 18000 nM.

`CCn1nc(C(F)(F)F)cc1-c1ccc(Oc2ccc(S(=O)(=O)Nc3ccc(C#N)cn3)cc2C#N)cc1` [Example 343, 3-cyano-N-(5-cyanopyridin-2-yl)-4-{4-[1-ethyl-3-(trifluoromethyl)-1H-pyrazol-5-yl]phenoxy}benzenesulfonamide]: the half-inhibitory concentration (IC50) is greater than 10000 nM.

With `Cn1nccc1-c1cc(F)ccc1Oc1ccc(S(=O)(=O)Nc2ncc(F)s2)cc1F` [Example 347, 3-fluoro-4-[4-fluoro-2-(1-methyl-1H-pyrazol-5-yl)phenoxy]-N-(5-fluoro-1,3-thiazol-2-yl)benzenesulfonamide], the 50% inhibitory concentration (IC50) is 300 nM.

With `Cn1ncnc1-c1cc(Cl)ccc1Oc1ccc(S(=O)(=O)Nc2ncc(F)s2)cc1F` [Example 349, 4-[4-chloro-2-(1-methyl-1H-1,2,4-triazol-5-yl)phenoxy]-3-fluoro-N-(5-fluoro-1,3-thiazol-2-yl)benzenesulfonamide], the 50% inhibitory concentration (IC50) is greater than 1000 nM.

On to `CCc1ccc(Oc2ccc(S(=O)(=O)Nc3nccs3)cc2C#N)c(-c2ccnn2C)c1` [Example 350, 3-cyano-4-[4-ethyl-2-(1-methyl-1H-pyrazol-5-yl)phenoxy]-N-1,3-thiazol-2-ylbenzenesulfonamide], for which the 50% inhibitory concentration (IC50) was 15 nM.

As to `CC(C)c1ccc(Oc2ccc(S(=O)(=O)Nc3nccs3)cc2C#N)c(-c2ccnn2C)c1` [Example 351, 3-cyano-4-[4-isopropyl-2-(1-methyl-1H-pyrazol-5-yl)phenoxy]-N-1,3-thiazol-2-ylbenzenesulfonamide], the IC50 was 18 nM.

With `CC(C)c1cc(-n2ccc(C(F)(F)F)n2)ccc1Oc1ccc(S(=O)(=O)Nc2nccs2)cc1C#N` [Example 352, 3-cyano-4-{2-isopropyl-4-[3-(trifluoromethyl)-1H-pyrazol-1-yl]phenoxy}-N-1,3-thiazol-2-ylbenzenesulfonamide], the half-inhibitory concentration (IC50) is 190 nM.

`CC(C)c1cc(-n2cc(Cl)cn2)ccc1Oc1ccc(S(=O)(=O)Nc2nccs2)cc1C#N` [Example 353, 4-[4-(4-chloro-1H-pyrazol-1-yl)-2-isopropylphenoxy]-3-cyano-N-1,3-thiazol-2-ylbenzenesulfonamide]: the IC50 was 220 nM.

On to `CC(C)c1cc(-c2cc(C(F)(F)F)nn2C)ccc1Oc1ccc(S(=O)(=O)Nc2nccs2)cc1C#N` [Example 354, 3-cyano-4-{2-isopropyl-4-[1-methyl-3-(trifluoromethyl)-1H-pyrazol-5-yl]phenoxy}-N-1,3-thiazol-2-ylbenzenesulfonamide], for which the IC50 was 180 nM.

In the case of `N#Cc1cc(S(=O)(=O)Nc2nccs2)ccc1Oc1ccc(Br)cc1CN1CCCC1` [Example 355, 4-[4-bromo-2-(pyrrolidin-1-ylmethyl)phenoxy]-3-cyano-N-1,3-thiazol-2-ylbenzenesulfonamide], the IC50 was 400 nM.

Regarding `Cc1cc(C(F)(F)F)nn1-c1ccc(Oc2ccc(S(=O)(=O)Nc3nccs3)cc2C#N)c(C(C)C)c1` [Example 356, 3-cyano-4-{2-isopropyl-4-[5-methyl-3-(trifluoromethyl)-1H-pyrazol-1-yl]phenoxy}-N-1,3-thiazol-2-ylbenzenesulfonamide], the concentration for half-maximal inhibition (IC50) was 120 nM.

For the compound `N#Cc1cc(S(=O)(=O)Nc2nccs2)ccc1Oc1ccc(Cl)cc1CN1CCC(O)C1` (stereo not drawn) [Example 357, 4-{4-chloro-2-[(3-hydroxypyrrolidin-1-yl)methyl]phenoxy}-3-cyano-N-1,3-thiazol-2-ylbenzenesulfonamide], the half-maximal inhibitory concentration (IC50) was 390 nM.

Take `N#Cc1cc(S(=O)(=O)Nc2nccs2)ccc1Oc1ccc(Cl)cc1CN1CCC(F)(F)CC1` [Example 358, 4-{4-chloro-2-[(4,4-difluoropiperidin-1-yl)methyl]phenoxy}-3-cyano-N-1,3-thiazol-2-ylbenzenesulfonamide]: the IC50 was 360 nM.

Regarding `Cn1nccc1-c1ccc(I)cc1Oc1ccc(S(=O)(=O)Nc2nccs2)cc1C#N` [Example 359, 3-cyano-4-[5-iodo-2-(1-methyl-1H-pyrazol-5-yl)phenoxy]-N-1,3-thiazol-2-ylbenzenesulfonamide], the IC50 was 11 nM.
